Experimental data from patent US9012404B2, “Compositions and methods for cardiac tissue protection and regeneration” (3D Matrix, Inc., priority 2006, dated 2015).
“Also recorded” adds a separate entry of the source.

Experiments:
[1] = tested on: rabbits; assay: Rabbit Pyrogenicity (ISO-10993-11); assay type: in vivo; conditions: intravenous injection of extract at 10 mL/kg
Method: The purpose of the test was to detect the risk of a patient to a febrile reaction as a result of the administration of the test article extract. The test article was prepared by mixing 9 ml of the test article with 9 mL of 0.9% USP Sodium Chloride for Injection (NaCl) and the resulting gel extracted at a ration of 0.2 gm per 1.0 mL. The test article extract was administered by intravenous injection at 10 mL/kg. The rectal temperatures of the injected rabbits were compared with the temperature of a control rabbit similarly injected with 0.9% USP Sodium Chloride for Injection (NaCl). The base-line temperatures of the rabbits, determined no more than 30 minutes prior to injection of the test article extract, were used to exclude rabbits whose body temperatures vary by more than 1° C. from each other and whose temperatures are greater than 39.8° C. Body temperatures were recorded at 30 minute intervals between 1 and 3 hours subsequent to injection.

[2] = tested on: rabbit blood (red blood cells); assay: Hemolysis: Direct Contact (ISO 10993-4); assay type: cell-based; conditions: rabbit blood in direct contact, triplicate
Description: (§1) Standard in vitro toxicology studies, including EN/ISO tests for cytotoxicity and hemocompatibility, have been completed. The tests below were completed at a FDA certified toxicology testing company (Toxikon Corp, Bedford, Mass.) using established standards of measure on a CardioMatrix material (Tables 3 and 4). The CardioMatrix solution tested in this example comprised various concentrations of CardioMatrix powder in substantially sucrose free aqueous solution.
The hemolysis test (Direct Contact, ISO-10993-4) measures the ability of a material to cause red blood cells to rupture. This test is derived from well-established NIH protocols and is performed in triplicate. This test uses rabbit blood in direct contact with the test material and the degree of hemolysis is measured spectrophotometrically.

[3] = tested on: L929 mouse fibroblast cell culture; assay: Cytotoxicity: Agar Diffusion ISO 10993-5; assay type: cell-based; conditions: L929 mouse fibroblast monolayer
Description: as §1
The Agar Diffusion test (ISO 10993-5) measures a material's effect on cell cultures, which are extremely sensitive to minute quantities of leachable chemicals and readily display characteristic signs of toxicity in the presence of potentially harmful leachables. The biological reactivity of a mammalian monolayer, L929 mouse fibroblast cell culture, in response to the test article was determined as “no-reactivity” in tests.

[4] = tested on: prothrombin coagulation time of human plasma; assay: Prothrombin Time Assay, Human Plasma (ISO 10993-4)
Description: as §1
Prothrombin Time (Human Plasma, ISO 10993-4) measures the effect of a test article extract on human blood coagulation time. This assay has become a suitable clinical means of determining the presence and functioning ability of prothrombin in the process of coagulation.

[5] = tested on: rabbits; conditions: rabbit, in vivo
Method: A 0.5% w/v peptide CardioMatrix solution was extracted in NaCl and CSO at a ratio of 0.2 gm per 1.0 mL at 70±2° C. for 24 hours. […] Three rabbits were injected intracutaneously, using one side of the animal for the test article extracts and the other side for the control extracts, at 0.2 mL per site. The injected sites were examined at 24, 48, and 72 hours post inoculation for gross evidence of tissue reaction such as erythema, edema, and necrosis. A Primary Irritation Index of 0.5 or less will be considered a negligible irritant, where 0.5 to <2 are slight irritants, 2 to <5 are moderate irritants, and >5 are severe irritants.

[6] = tested on: paravertebral muscle of New Zealand white rabbits; conditions: in vivo
Description: This test assesses the local effects of material on contact with living tissue. Test article was implanted into paravertebral muscle of 3 New Zealand white rabbits, with negative control (GelFoam) implanted in the contralateral muscle of each animal. Healing was allowed for 2 weeks. Animals were sacrificed and implants excised. Excised implants were examined macroscopically with a magnifying lens and fixed in formalin. Histologic slides of hematoxylin and eosin (H&E) and Mason's Trichrome stained sections were prepared, studied microscopically by a board-certified veterinary pathologist, and evaluated on a scale of 0-3. CardioMatrix implants retained the initial implant volume, collagen fibers, and vascularization of the injection site.

[7] = parameters: species or system Sprague Dawley rats; conditions: rat, in vivo
Description: To measure the local and whole animal distribution a 14C, carbon radiolabeled version of a Cardiomatrix was generated. The radiolabeled version was internally labeled at the third alanine site (Acetyl-(RADA)-(R-[^14C(U)-Ala]-D-A)-(RADA)2-CONH2) as opposed to a labeled acetyl group which could be cleaved off, in order to better characterize the adsorption, degradation, metabolism and excretion (ADME) of the CardioMatrix material in vivo. The radiolabeled material was then implanted into Sprague Dawley rats in a femur defect model. Urine and stool samples were collected and the radioactivity was counted.

- Initiation of coagulation cascades (hemocompatibility tests) ([4]; direct contact with blood and plasma): do not initiate coagulation cascades
- Time until degraded and excreted [7]: ≤ 28 days
Compound: CC(=O)N[C@@H](CCCNC(=N)N)C(=O)N[C@@H](C)C(=O)N[C@@H](CC(=O)O)C(=O)N[C@@H](C)C(=O)N[C@@H](CCCNC(=N)N)C(=O)N[C@@H](C)C(=O)N[C@@H](CC(=O)O)C(=O)N[C@@H](C)C(=O)N[C@@H](CCCNC(=N)N)C(=O)N[C@@H](C)C(=O)N[C@@H](CC(=O)O)C(=O)N[C@@H](C)C(=O)N[C@@H](CCCNC(=N)N)C(=O)N[C@@H](C)C(=O)N[C@@H](CC(=O)O)C(=O)N[C@@H](C)C(N)=O [CardioMatrix, RADARADARADARADA]
- Rabbit pyrogenicity, febrile reaction [1]: None of the animals injected with the test article extract exhibited signs of pyrogenic response; also recorded: No effect on animals; also recorded: No febrile reaction from any animal
- Hemolysis: Direct Contact [2]: Non-hemolytic
- Cytotoxicity: Agar Diffusion, biological reactivity [3]: no-reactivity; also recorded: Non-cytotoxic
- Effect on prothrombin coagulation time ([4]; test article extract, human plasma): did not have an adverse effect
- Irritant class by Primary Irritation Index [5]: “Negligible”
- Signs of erythema or edema at injected sites [5]: did not exhibit signs of erythema or edema
- Rabbit Muscle Implant toxicity score [6]: 0.13
